Test results published in PubChem BioAssay (NCI).
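Values below derive from 48-hour exposures of cells grown in 96-well plates, with endpoints linearly interpolated between the two concentrations bracketing the appropriate inhibition level. TGI denotes the concentration required for complete inhibition of growth.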

Columns and labels:
Assay in all cases: growth of human tumour cells (NCI), 48 h
COLO 205 colon = system: COLO 205 colon
NCI-H522 lung = system: NCI-H522 lung
OVCAR-3 ovarian = system: OVCAR-3 ovarian
SN12C renal = system: SN12C renal
BT-549 breast = system: BT-549 breast
MDA-N = system: MDA-N
HCT-15 colon = system: HCT-15 colon
NCI-H23 lung = system: NCI-H23 lung
OVCAR-4 ovarian = system: OVCAR-4 ovarian
DU-145 prostate = system: DU-145 prostate
T-47D breast = system: T-47D breast
PC-3 prostate = system: PC-3 prostate
MDA-MB-435 = system: MDA-MB-435
SK-MEL-28 melanoma = system: SK-MEL-28 melanoma
IGROV1 ovarian = system: IGROV1 ovarian
RXF 393 renal = system: RXF 393 renal
K-562 leukemia = system: K-562 leukemia
SK-MEL-2 melanoma = system: SK-MEL-2 melanoma
OVCAR-5 ovarian = system: OVCAR-5 ovarian
786-0 renal = system: 786-0 renal
NCI/ADR-RES ovarian = system: NCI/ADR-RES ovarian
HCC-2998 colon = system: HCC-2998 colon
MCF7 breast = system: MCF7 breast
SK-OV-3 ovarian = system: SK-OV-3 ovarian
UO-31 renal = system: UO-31 renal
CCRF-CEM leukemia = system: CCRF-CEM leukemia
ACHN renal = system: ACHN renal
UACC-62 melanoma = system: UACC-62 melanoma
TK-10 renal = system: TK-10 renal
MDA-MB-231 breast = system: MDA-MB-231 breast
HT29 colon = system: HT29 colon
OVCAR-8 ovarian = system: OVCAR-8 ovarian
A549 NSCLC = system: A549 NSCLC
SR leukemia = system: SR leukemia
HOP-92 NSCLC = system: HOP-92 NSCLC
SF-268 CNS = system: SF-268 CNS
SNB-75 CNS = system: SNB-75 CNS
EKVX NSCLC = system: EKVX NSCLC
HOP-62 NSCLC = system: HOP-62 NSCLC
UACC-257 melanoma = system: UACC-257 melanoma
KM12 colon = system: KM12 colon
SW-620 colon = system: SW-620 colon
SNB-19 CNS = system: SNB-19 CNS
HCT-116 colon = system: HCT-116 colon
NCI-H460 lung = system: NCI-H460 lung
MALME-3M melanoma = system: MALME-3M melanoma
M14 melanoma = system: M14 melanoma
CAKI-1 renal = system: CAKI-1 renal
SK-MEL-5 melanoma = system: SK-MEL-5 melanoma
HS 578T breast = system: HS 578T breast
U251 CNS = system: U251 CNS
NCI-H226 lung = system: NCI-H226 lung
MOLT-4 leukemia = system: MOLT-4 leukemia
SF-295 CNS = system: SF-295 CNS
A498 renal = system: A498 renal
HL-60(TB) leukemia = system: HL-60(TB) leukemia
SF-539 CNS = system: SF-539 CNS
LOX IMVI melanoma = system: LOX IMVI melanoma
RPMI-8226 leukemia = system: RPMI-8226 leukemia

With `CCCCC/C=C1\CC(CO)(COC(=O)CC(C(C)C)C(C)C)OC1=O` (configuration not stated) the TGI (COLO 205 colon) was 15.3 µM, the TGI (NCI-H522 lung) was 33.6 µM and the TGI (OVCAR-3 ovarian) was 32.3 µM. It also gave a TGI (SN12C renal) of 31.8 µM, a TGI (BT-549 breast) of 31 µM and a TGI (MDA-N) of 26.4 µM. It also gave a TGI (HCT-15 colon) of 38.9 µM, a TGI (NCI-H23 lung) of 36.4 µM and a TGI (OVCAR-4 ovarian) of 46.5 µM. The TGI (DU-145 prostate) was 44.9 µM, the TGI (T-47D breast) was 55.1 µM and the TGI (PC-3 prostate) was 27.5 µM. For the same compound, the TGI (MDA-MB-435) was 22 µM, the TGI (SK-MEL-28 melanoma) was 36.2 µM and the TGI (IGROV1 ovarian) was 31.8 µM. It also gave a TGI (RXF 393 renal) of 33.9 µM, a TGI (K-562 leukemia) of 44.2 µM and a TGI (SK-MEL-2 melanoma) of 49 µM. It also gave a TGI (OVCAR-5 ovarian) of 27.7 µM, a TGI (786-0 renal) of 30.3 µM and a TGI (NCI/ADR-RES ovarian) of 47 µM. It also gave a TGI (HCC-2998 colon) of 32.6 µM, a TGI (MCF7 breast) of 39.3 µM and a TGI (SK-OV-3 ovarian) of 38.7 µM. The TGI (UO-31 renal) was 28.6 µM, the TGI (CCRF-CEM leukemia) was > 100 µM and the TGI (ACHN renal) was 28.7 µM. For the same compound, the TGI (UACC-62 melanoma) was 39 µM, the TGI (TK-10 renal) was 36.8 µM and the TGI (MDA-MB-231 breast) was 40.2 µM. It also gave a TGI (HT29 colon) of 40.1 µM, a TGI (OVCAR-8 ovarian) of 32.1 µM and a TGI (A549 NSCLC) of 28.8 µM. The TGI (SR leukemia) was > 100 µM, the TGI (HOP-92 NSCLC) was 20.9 µM and the TGI (SF-268 CNS) was 35.5 µM. For the same compound, the TGI (SNB-75 CNS) was 26.8 µM, the TGI (EKVX NSCLC) was 30.3 µM and the TGI (HOP-62 NSCLC) was 21.1 µM. For the same compound, the TGI (UACC-257 melanoma) was 45.6 µM, the TGI (KM12 colon) was 28.3 µM and the TGI (SW-620 colon) was > 100 µM. For the same compound, the TGI (SNB-19 CNS) was 30.3 µM, the TGI (HCT-116 colon) was 44.4 µM and the TGI (NCI-H460 lung) was > 100 µM. The TGI (MALME-3M melanoma) was 31.9 µM, the TGI (M14 melanoma) was 32.4 µM and the TGI (CAKI-1 renal) was 24.3 µM. The TGI (SK-MEL-5 melanoma) was 22.9 µM, the TGI (HS 578T breast) was 18.3 µM and the TGI (U251 CNS) was 31.6 µM. For the same compound, the TGI (NCI-H226 lung) was 27.2 µM, the TGI (MOLT-4 leukemia) was 54.1 µM and the TGI (SF-295 CNS) was 20 µM. The TGI (A498 renal) was 33.7 µM.

For `COC(=O)CCC(C)[C@H]1CCC2C3C(C[C@H](OC(C)=O)[C@@]21C)[C@@]1(C)CCC2(C[C@H]1C[C@H]3OC(C)=O)OOC1(CCCCCCC1)OO2` (some centres not stated), the TGI (COLO 205 colon) was > 100 µM, the TGI (NCI-H522 lung) was > 100 µM and the TGI (OVCAR-3 ovarian) was > 100 µM. The TGI (SN12C renal) was > 100 µM, the TGI (BT-549 breast) was > 100 µM and the TGI (MDA-N) was > 100 µM. The TGI (HCT-15 colon) was > 100 µM, the TGI (NCI-H23 lung) was > 100 µM and the TGI (OVCAR-4 ovarian) was > 100 µM. The TGI (DU-145 prostate) was > 100 µM, the TGI (T-47D breast) was > 100 µM and the TGI (HL-60(TB) leukemia) was > 100 µM. For the same compound, the TGI (PC-3 prostate) was > 100 µM, the TGI (MDA-MB-435) was > 100 µM and the TGI (SK-MEL-28 melanoma) was > 100 µM. For the same compound, the TGI (IGROV1 ovarian) was > 100 µM, the TGI (RXF 393 renal) was > 100 µM and the TGI (K-562 leukemia) was > 100 µM. For the same compound, the TGI (SK-MEL-2 melanoma) was > 100 µM, the TGI (OVCAR-5 ovarian) was > 100 µM and the TGI (786-0 renal) was > 100 µM. For the same compound, the TGI (NCI/ADR-RES ovarian) was > 100 µM, the TGI (MCF7 breast) was > 100 µM and the TGI (SK-OV-3 ovarian) was > 100 µM. The TGI (UO-31 renal) was 28.8 µM, the TGI (CCRF-CEM leukemia) was > 100 µM and the TGI (ACHN renal) was > 100 µM. For the same compound, the TGI (SF-539 CNS) was > 100 µM, the TGI (TK-10 renal) was > 100 µM and the TGI (MDA-MB-231 breast) was > 100 µM. The TGI (LOX IMVI melanoma) was > 100 µM, the TGI (HT29 colon) was > 100 µM and the TGI (OVCAR-8 ovarian) was > 100 µM. The TGI (A549 NSCLC) was > 100 µM, the TGI (SR leukemia) was > 100 µM and the TGI (HOP-92 NSCLC) was > 100 µM. The TGI (SF-268 CNS) was > 100 µM, the TGI (SNB-75 CNS) was > 100 µM and the TGI (EKVX NSCLC) was > 100 µM. For the same compound, the TGI (HOP-62 NSCLC) was 52.7 µM, the TGI (UACC-257 melanoma) was > 100 µM and the TGI (KM12 colon) was > 100 µM. The TGI (SW-620 colon) was > 100 µM, the TGI (SNB-19 CNS) was > 100 µM and the TGI (HCT-116 colon) was > 100 µM. For the same compound, the TGI (NCI-H460 lung) was > 100 µM, the TGI (MALME-3M melanoma) was > 100 µM and the TGI (M14 melanoma) was > 100 µM. For the same compound, the TGI (RPMI-8226 leukemia) was 6.21 µM, the TGI (CAKI-1 renal) was > 100 µM and the TGI (SK-MEL-5 melanoma) was > 100 µM. For the same compound, the TGI (HS 578T breast) was > 100 µM, the TGI (U251 CNS) was > 100 µM and the TGI (NCI-H226 lung) was 50 µM. The TGI (MOLT-4 leukemia) was > 100 µM, the TGI (SF-295 CNS) was > 100 µM and the TGI (A498 renal) was > 100 µM.
